Drawing on US7235551B2, “1,5-disubstituted-3,4-dihydro-1h-pyrimido[4,5-d]pyrimidin-2-one compounds and their use in treating csbp/p38 kinase mediated diseases” (SmithKline Beecham Corporation, priority 2000, dated 2007), this text covers melting point for four molecules.

A word on the melting point: it is the temperature, or range, at which the solid turns liquid.

`COc1nc(-c2ccc(F)cc2C)c2c(n1)N(c1c(F)cccc1F)C(=O)NC2` [Example 161, 1-(2,6-Difluorophenyl)-5-(4-fluoro-2-methylphenyl)-7-methoxy-3,4-dihydro-1H-pyrimido[4,5-d]pyrimidin-2-one] gave a melting point of 210 to 211 °C.
Molecule `Cc1cc(F)ccc1-c1nc(OCCO)nc2c1CNC(=O)N2c1c(F)cccc1F` [Example 163, 1-(2,6-Difluorophenyl)-5-(4-fluoro-2-methylphenyl)-7-(2-hydroxyethoxy)-3,4-dihydro-1H-pyrimido[4,5-d]pyrimidin-2-one] registered a melting point of 172 to 175 °C.
The same measure for `COc1nc(-c2ccccc2)c2c(n1)N(c1c(F)cccc1F)C(=O)NC2` [Example 166, 1-(2,6-Difluorophenyl)-5-phenyl-7-methoxy-3,4-dihydro-1H-pyrimido[4,5-d]pyrimidin-2-one]: 221 to 224 °C; for `COc1nc(-c2ccccc2)c2c(n1)N(c1ccccc1)C(=O)NC2` [Example 167, 1,5-diphenyl-7-methoxy-3,4-dihydro-1H-pyrimido[4,5-d]pyrimidin-2-one]: 220 to 222 °C.
